# From publication PMC3806060 (Journal of medicinal chemistry, 2013)
# System: H146 small-cell lung cancer cell line
# Test: Cell growth inhibition assay
# Type: cell-based, Human
# Details: for Cellular activity in H146: at 1 μM; for Times less potent than compound 5 in H146 cell growth inhibition: versus 5; for Times less potent than compound 28 in H146 cell growth inhibition: versus 28
smiles,measurement,setting,value
"CN(C)CC[C@H](CSc1ccccc1)Nc1ccc(S(=O)(=O)Nc2ccc(N3CCN(c4cccc(-c5c(C(=O)NS(C)(=O)=O)ncn5-c5ccc(Cl)cc5)c4)CC3)cc2)cc1[N+](=O)[O-] [Compound 23, (R)-1-(4-Chlorophenyl)-5-(3-(4-(4-(4-(4-(dimethylamino)-1-(phenylthio)butan-2-ylamino)-3-nitrophenylsulfonamido)phenyl)piperazin-1-yl)phenyl)-N-(methylsulfonyl)-1H-imidazole-4-carboxamide]",Cellular activity in H146,,minimal activity
"CN(C)CC[C@H](CSc1ccccc1)Nc1ccc(S(=O)(=O)Nc2ccc(N3CCN(c4cccc(-c5c(C(=O)NS(C)(=O)=O)cnn5-c5ccc(Cl)cc5)c4)CC3)cc2)cc1[N+](=O)[O-] [Compound 24, (R)-1-(4-Chlorophenyl)-5-(3-(4-(4-(4-(4-(dimethylamino)-1-(phenylthio)butan-2-ylamino)-3-nitrophenylsulfonamido)phenyl)piperazin-1-yl)phenyl)-N-(methylsulfonyl)-1H-pyrazole-4-carboxamide]",Cellular activity in H146,,minimal activity
"CN(C)CC[C@H](CSc1ccccc1)Nc1ccc(S(=O)(=O)Nc2ccc(N3CCN(c4cccc(-c5c(C(=O)O)nn(C)c5-c5ccc(Cl)cc5)c4)CC3)cc2)cc1[N+](=O)[O-] [Compound 25, (R)-5-(4-Chlorophenyl)-4-(3-(4-(4-(4-(4-(dimethylamino)-1-(phenylthio)butan-2-ylamino)-3-nitrophenylsulfonamido)phenyl)piperazin-1-yl)phenyl)-1-methyl-1H-pyrazole-3-carboxylic acid]",Cellular activity in H146,,minimal activity
"CCCCn1c(C)c(C(=O)O)c(-c2cccc(N3CCN(c4ccc(NS(=O)(=O)c5ccc(N[C@H](CCN(C)C)CSc6ccccc6)c([N+](=O)[O-])c5)cc4)CC3)c2)c1-c1ccc(Cl)cc1 [Compound 30, (R)-1-Butyl-5-(4-chlorophenyl)-4-(3-(4-(4-(4-(4-(dimethylamino)-1-(phenylthio)butan-2-ylamino)-3-nitrophenylsulfonamido)phenyl)piperazin-1-yl)phenyl)-2-methyl-1H-pyrrole-3-carboxylic acid]",Times less potent than compound 5 in H146 cell growth inhibition,,> 5 times
same,Times less potent than compound 28 in H146 cell growth inhibition,,> 10 times
Cc1c(C(=O)O)c(-c2cccc(N3CCN(c4ccc(NS(=O)(=O)c5ccc(N[C@H](CCN(C)C)CSc6ccccc6)c([N+](=O)[O-])c5)cc4)CC3)c2)c(-c2ccc(Cl)cc2)n1C(C)C [Compound 28],Times more potent than compound 4 in H146 cell growth inhibition,versus 4,20 times
Cc1cc(-c2cccc(N3CCN(c4ccc(NS(=O)(=O)c5ccc(N[C@H](CCN(C)C)CSc6ccccc6)c([N+](=O)[O-])c5)cc4)CC3)c2)c(-c2ccc(Cl)cc2)n1C [Compound 7],Inhibition of cell growth in H146,at concentrations as high as 10 μM,completely inactive
"CN(C)CC[C@H](CSc1ccccc1)Nc1ccc(S(=O)(=O)Nc2ccc(N3CCN(c4cccc(-c5c(C(=O)O)c(C(F)(F)F)n(C)c5-c5ccc(Cl)cc5)c4)CC3)cc2)cc1[N+](=O)[O-] [Compound 16, (R)-5-(4-Chlorophenyl)-4-(3-(4-(4-(4-(4-(dimethylamino)-1-(phenylthio)butan-2-ylamino)-3-nitrophenylsulfonamido)phenyl)piperazin-1-yl)phenyl)-1-methyl-2-(trifluoromethyl)-1H-pyrrole-3-carboxylic acid]",Times less potent than compound 4 in H146 cell growth inhibition,versus 4,8 times
"CCCn1c(C)c(C(=O)O)c(-c2cccc(N3CCN(c4ccc(NS(=O)(=O)c5ccc(N[C@H](CCN(C)C)CSc6ccccc6)c([N+](=O)[O-])c5)cc4)CC3)c2)c1-c1ccc(Cl)cc1 [Compound 29, (R)-5-(4-Chlorophenyl)-4-(3-(4-(4-(4-(4-(dimethylamino)-1-(phenylthio)butan-2-ylamino)-3-nitrophenylsulfonamido)phenyl)piperazin-1-yl)phenyl)-2-methyl-1-propyl-1H-pyrrole-3-carboxylic acid]",Times less potent than compound 5 in H146 cell growth inhibition,,> 5 times
same,Times less potent than compound 28 in H146 cell growth inhibition,,> 10 times
